According to publication PMC7026418, “The kinase polypharmacology landscape of clinical PARP inhibitors” (Scientific Reports, 2020):
Like-named read-outs stand apart in the source and are kept apart here. Blank lines part the entries; values can stand above or below the molecule they belong to.

How the values were obtained:
Experiment in all cases: biochemical
Set-up in all cases: DiscoveRx KINOMEscan active site-directed competition binding; percent of control kinase bound to immobilised ligand
CIT = CIT (Homo sapiens, UniProt O14578)
ADCK4 = biological target: T1, ADCK4 (Homo sapiens, UniProt Q96D53)
T1 construct: gene COQ8B
T1 sequence (Q96D53 1-544): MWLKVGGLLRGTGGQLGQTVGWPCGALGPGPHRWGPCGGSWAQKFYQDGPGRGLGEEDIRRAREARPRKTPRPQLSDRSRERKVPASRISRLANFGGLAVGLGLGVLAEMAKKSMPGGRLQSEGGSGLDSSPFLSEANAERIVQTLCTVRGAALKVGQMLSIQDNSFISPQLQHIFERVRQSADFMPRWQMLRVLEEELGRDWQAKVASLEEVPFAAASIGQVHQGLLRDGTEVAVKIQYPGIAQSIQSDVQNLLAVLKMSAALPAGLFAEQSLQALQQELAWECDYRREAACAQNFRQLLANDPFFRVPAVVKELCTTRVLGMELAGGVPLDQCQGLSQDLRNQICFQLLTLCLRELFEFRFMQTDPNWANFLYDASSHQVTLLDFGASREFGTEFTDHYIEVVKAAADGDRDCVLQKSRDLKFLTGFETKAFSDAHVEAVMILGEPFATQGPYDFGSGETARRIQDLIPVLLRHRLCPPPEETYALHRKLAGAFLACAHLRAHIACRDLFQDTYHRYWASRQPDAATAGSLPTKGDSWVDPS

FES = FES (Homo sapiens, UniProt P07332)
TAK1 = biological target: T2, TAK1 (Homo sapiens, UniProt O43318)
T2 construct: gene MAP3K7
T2 sequence (O43318 1-606): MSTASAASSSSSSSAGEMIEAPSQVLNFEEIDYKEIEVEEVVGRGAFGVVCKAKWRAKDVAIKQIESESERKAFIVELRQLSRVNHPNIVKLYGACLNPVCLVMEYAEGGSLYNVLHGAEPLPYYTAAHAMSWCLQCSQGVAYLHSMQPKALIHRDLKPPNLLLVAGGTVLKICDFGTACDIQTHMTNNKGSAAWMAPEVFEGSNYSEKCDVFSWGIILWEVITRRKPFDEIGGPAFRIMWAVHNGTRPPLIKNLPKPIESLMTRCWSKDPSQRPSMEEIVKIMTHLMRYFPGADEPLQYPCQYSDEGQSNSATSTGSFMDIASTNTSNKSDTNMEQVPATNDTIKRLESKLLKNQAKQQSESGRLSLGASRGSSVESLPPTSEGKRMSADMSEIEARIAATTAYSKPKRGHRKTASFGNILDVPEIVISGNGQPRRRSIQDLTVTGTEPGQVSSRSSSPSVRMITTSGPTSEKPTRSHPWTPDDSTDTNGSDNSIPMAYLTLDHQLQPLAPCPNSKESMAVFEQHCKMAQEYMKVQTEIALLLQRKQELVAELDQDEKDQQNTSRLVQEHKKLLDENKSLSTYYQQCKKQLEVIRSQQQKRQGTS

HIPK1 = HIPK1 (Homo sapiens, UniProt Q86Z02)
WNK1 = WNK1 (Homo sapiens, UniProt Q9H4A3)
ITK = biological target: T3, ITK (Homo sapiens, UniProt Q08881)
T3 sequence (Q08881 1-620): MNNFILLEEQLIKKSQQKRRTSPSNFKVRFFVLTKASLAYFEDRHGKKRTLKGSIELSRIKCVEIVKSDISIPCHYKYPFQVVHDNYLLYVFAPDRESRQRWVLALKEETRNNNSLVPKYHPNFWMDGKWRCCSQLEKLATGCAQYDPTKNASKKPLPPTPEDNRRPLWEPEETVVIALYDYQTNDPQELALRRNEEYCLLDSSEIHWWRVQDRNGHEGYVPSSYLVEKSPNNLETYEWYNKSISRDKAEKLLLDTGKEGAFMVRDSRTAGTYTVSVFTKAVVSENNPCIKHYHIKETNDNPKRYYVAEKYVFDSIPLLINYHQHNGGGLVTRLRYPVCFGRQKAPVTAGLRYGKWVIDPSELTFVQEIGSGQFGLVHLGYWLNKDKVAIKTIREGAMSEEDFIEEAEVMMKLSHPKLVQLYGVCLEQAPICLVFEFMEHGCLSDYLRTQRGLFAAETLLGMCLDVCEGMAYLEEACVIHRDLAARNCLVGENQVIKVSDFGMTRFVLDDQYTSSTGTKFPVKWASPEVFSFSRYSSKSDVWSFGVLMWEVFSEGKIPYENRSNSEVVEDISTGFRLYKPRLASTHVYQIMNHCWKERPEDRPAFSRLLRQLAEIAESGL

ALK(C1156Y) = ALK(C1156Y) (Homo sapiens, UniProt Q9UM73, C1156Y)
[1] = read-out: Niraparib (MK-4827) / %Ctrl @ 10000nM
[2] = read-out: Rucaparib / %Ctrl @ 10000nM, binding competition, % of control
[3] = read-out: Olaparib / %Ctrl @ 10000nM
[4] = read-out: Talazoparib (BMN 673) / %Ctrl @ 10000nM

Sequence of WNK1 (Q9H4A3 whole entry): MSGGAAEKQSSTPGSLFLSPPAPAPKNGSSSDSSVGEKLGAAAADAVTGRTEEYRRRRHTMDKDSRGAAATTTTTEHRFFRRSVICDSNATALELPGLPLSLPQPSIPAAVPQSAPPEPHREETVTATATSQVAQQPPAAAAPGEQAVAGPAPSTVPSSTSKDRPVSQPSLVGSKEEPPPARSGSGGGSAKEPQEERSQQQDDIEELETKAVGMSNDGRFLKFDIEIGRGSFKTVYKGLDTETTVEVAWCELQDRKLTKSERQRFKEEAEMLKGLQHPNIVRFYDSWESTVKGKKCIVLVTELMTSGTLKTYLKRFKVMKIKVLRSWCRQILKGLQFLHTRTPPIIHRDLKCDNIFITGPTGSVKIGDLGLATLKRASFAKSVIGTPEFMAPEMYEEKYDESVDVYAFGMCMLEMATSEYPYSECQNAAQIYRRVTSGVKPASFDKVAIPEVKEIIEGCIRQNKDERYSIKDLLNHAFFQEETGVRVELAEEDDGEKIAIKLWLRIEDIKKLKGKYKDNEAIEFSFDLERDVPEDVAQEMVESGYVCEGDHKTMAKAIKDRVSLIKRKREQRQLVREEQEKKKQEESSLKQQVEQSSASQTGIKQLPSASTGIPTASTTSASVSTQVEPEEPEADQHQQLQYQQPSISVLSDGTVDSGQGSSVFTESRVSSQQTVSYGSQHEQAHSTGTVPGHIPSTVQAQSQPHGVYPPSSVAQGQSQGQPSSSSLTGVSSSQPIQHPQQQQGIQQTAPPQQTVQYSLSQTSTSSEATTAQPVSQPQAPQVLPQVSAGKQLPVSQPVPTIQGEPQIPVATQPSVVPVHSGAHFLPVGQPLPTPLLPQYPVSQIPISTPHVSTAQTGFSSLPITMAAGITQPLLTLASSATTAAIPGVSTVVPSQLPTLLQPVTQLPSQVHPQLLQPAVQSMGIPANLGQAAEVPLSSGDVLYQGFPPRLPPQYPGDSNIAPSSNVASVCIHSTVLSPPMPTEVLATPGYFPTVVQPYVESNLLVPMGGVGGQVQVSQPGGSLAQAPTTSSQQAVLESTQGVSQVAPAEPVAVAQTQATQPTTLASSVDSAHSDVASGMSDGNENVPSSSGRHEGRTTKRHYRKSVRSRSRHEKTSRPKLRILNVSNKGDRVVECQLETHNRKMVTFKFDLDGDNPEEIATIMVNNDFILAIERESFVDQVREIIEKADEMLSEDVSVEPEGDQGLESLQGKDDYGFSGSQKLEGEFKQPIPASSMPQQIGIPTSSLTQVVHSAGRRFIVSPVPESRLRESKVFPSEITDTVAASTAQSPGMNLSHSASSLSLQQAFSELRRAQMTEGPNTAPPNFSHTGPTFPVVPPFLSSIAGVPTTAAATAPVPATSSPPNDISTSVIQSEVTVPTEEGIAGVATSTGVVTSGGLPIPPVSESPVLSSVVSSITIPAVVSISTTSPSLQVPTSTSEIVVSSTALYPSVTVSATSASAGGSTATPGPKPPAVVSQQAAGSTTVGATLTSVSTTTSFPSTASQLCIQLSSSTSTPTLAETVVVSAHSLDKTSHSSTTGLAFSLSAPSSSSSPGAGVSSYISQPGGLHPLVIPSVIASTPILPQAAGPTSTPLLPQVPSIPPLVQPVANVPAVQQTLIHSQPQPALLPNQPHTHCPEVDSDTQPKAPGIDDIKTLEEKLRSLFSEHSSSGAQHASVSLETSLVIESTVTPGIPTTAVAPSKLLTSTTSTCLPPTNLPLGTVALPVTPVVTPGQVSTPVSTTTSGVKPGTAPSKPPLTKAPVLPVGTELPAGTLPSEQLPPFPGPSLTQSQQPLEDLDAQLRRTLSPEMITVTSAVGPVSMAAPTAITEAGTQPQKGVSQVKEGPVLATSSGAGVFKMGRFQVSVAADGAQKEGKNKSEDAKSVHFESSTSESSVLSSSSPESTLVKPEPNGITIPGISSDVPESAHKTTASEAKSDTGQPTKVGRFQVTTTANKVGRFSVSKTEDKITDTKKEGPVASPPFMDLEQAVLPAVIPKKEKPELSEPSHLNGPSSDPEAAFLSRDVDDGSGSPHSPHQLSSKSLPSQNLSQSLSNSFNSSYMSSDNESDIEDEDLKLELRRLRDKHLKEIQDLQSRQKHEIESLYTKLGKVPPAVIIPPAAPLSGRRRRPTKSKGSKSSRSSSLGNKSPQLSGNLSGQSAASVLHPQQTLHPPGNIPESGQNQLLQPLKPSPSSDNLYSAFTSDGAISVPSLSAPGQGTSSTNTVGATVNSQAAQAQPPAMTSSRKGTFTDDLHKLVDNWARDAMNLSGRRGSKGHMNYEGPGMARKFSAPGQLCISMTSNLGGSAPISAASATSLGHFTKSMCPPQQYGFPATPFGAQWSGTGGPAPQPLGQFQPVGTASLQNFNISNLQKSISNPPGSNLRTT
Sequence of ALK(C1156Y) (Q9UM73 whole entry C1156Y): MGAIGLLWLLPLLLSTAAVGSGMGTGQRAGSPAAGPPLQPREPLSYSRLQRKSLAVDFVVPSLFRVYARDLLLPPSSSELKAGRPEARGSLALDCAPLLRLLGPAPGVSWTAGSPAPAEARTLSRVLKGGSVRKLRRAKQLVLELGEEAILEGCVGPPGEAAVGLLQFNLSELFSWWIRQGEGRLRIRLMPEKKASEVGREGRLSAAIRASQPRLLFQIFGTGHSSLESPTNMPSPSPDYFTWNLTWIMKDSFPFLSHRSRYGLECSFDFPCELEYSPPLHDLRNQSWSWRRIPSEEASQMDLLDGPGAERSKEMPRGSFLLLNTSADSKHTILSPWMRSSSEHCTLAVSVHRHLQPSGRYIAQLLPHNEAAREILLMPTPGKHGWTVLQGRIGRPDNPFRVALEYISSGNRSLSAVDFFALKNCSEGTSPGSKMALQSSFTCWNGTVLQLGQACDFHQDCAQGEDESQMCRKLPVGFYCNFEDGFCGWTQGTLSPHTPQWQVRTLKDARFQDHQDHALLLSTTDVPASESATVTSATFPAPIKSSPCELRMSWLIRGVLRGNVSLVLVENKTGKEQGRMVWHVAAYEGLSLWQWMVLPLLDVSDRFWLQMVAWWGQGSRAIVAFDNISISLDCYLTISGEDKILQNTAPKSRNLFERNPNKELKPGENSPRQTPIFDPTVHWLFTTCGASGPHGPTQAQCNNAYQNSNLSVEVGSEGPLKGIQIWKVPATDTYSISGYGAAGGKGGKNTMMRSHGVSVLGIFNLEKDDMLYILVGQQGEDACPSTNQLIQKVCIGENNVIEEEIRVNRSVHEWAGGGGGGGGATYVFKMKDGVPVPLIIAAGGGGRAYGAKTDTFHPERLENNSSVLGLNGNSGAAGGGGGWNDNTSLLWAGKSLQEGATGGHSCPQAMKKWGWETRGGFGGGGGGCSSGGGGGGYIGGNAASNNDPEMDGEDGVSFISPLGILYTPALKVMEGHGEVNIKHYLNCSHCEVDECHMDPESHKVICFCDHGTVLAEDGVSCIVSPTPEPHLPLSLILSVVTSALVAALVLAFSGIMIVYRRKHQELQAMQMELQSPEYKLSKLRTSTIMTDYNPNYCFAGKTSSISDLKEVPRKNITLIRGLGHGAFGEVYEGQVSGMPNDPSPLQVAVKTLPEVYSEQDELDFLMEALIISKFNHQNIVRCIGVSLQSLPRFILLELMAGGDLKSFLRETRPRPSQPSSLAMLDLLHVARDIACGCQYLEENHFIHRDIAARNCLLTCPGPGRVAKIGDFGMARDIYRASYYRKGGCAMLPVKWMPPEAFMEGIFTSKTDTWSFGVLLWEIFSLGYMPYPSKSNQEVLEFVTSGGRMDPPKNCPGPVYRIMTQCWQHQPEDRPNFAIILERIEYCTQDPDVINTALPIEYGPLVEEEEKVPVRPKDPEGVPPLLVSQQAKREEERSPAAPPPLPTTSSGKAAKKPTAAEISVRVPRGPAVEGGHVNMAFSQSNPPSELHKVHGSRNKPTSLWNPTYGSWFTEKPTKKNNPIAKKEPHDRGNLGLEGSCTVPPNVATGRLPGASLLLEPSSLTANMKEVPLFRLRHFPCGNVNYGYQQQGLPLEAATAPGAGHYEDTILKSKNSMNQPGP
Sequence of FES (P07332 whole entry): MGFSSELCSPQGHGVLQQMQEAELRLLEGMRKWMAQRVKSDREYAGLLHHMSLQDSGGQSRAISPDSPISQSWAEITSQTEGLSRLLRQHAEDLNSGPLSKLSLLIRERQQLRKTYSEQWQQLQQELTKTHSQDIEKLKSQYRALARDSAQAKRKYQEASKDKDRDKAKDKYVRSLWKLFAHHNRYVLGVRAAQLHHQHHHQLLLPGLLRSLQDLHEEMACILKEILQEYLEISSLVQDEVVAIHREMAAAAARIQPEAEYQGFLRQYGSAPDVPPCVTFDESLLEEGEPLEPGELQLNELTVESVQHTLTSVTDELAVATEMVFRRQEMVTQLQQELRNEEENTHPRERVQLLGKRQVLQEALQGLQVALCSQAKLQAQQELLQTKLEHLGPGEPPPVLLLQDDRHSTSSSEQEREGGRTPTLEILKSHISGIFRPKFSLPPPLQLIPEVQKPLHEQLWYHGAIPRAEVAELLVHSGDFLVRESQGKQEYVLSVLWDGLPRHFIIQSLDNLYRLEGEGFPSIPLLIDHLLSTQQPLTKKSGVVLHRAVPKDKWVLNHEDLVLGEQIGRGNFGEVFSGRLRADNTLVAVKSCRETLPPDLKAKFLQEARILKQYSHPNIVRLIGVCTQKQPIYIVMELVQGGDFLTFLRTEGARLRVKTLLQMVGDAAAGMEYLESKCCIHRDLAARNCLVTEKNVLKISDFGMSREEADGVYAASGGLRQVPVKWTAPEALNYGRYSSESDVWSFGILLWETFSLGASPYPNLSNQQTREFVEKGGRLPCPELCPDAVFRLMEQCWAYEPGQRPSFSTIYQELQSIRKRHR

SMILES: NC(=O)c1cccc2cn(-c3ccc([C@@H]4CCCNC4)cc3)nc12 [Niraparib]
percent of control binding at 10 µM (CIT; [1]): 10%
percent of control binding at 10 µM (ADCK4; [1]): 100%
percent of control binding at 10 µM (FES; [1]): 83%
percent of control binding at 10 µM (TAK1; [1]): 38%
percent of control binding at 10 µM (HIPK1; [1]): 0.95%
percent of control binding at 10 µM (WNK1; [1]): 100%
percent of control binding at 10 µM (ITK; [1]): 91%
percent of control binding at 10 µM (ALK(C1156Y); [1]): 88%

percent of control binding at 10 µM (CIT; [2]): 4.8%
percent of control binding at 10 µM (ADCK4; [2]): 82%
percent of control binding at 10 µM (FES; [2]): 94%
percent of control binding at 10 µM (TAK1; [2]): 38%
percent of control binding at 10 µM (HIPK1; [2]): 5.4%
percent of control binding at 10 µM (WNK1; [2]): 81%
percent of control binding at 10 µM (ITK; [2]): 100%
percent of control binding at 10 µM (ALK(C1156Y); [2]): 43%
SMILES: CNCc1ccc(-c2[nH]c3cc(F)cc4c3c2CCNC4=O)cc1 [Rucaparib]

percent of control binding at 10 µM (CIT; [3]): 87%
percent of control binding at 10 µM (ADCK4; [3]): 97%
percent of control binding at 10 µM (FES; [3]): 92%
percent of control binding at 10 µM (TAK1; [3]): 77%
percent of control binding at 10 µM (HIPK1; [3]): 87%
percent of control binding at 10 µM (WNK1; [3]): 76%
percent of control binding at 10 µM (ITK; [3]): 100%
percent of control binding at 10 µM (ALK(C1156Y); [3]): 88%
SMILES: O=C(c1cc(Cc2n[nH]c(=O)c3ccccc23)ccc1F)N1CCN(C(=O)C2CC2)CC1 [Olaparib]

percent of control binding at 10 µM (CIT; [4]): 98%
percent of control binding at 10 µM (ADCK4; [4]): 100%
percent of control binding at 10 µM (FES; [4]): 98%
percent of control binding at 10 µM (TAK1; [4]): 100%
percent of control binding at 10 µM (HIPK1; [4]): 100%
percent of control binding at 10 µM (WNK1; [4]): 100%
percent of control binding at 10 µM (ITK; [4]): 84%
percent of control binding at 10 µM (ALK(C1156Y); [4]): 100%
SMILES: Cn1ncnc1[C@H]1c2n[nH]c(=O)c3cc(F)cc(c23)N[C@@H]1c1ccc(F)cc1 [Talazoparib]
